Data taken from US6677368B2, “4-aryl substituted indolinones” (Sugen, Inc., priority 2000, dated 2004).

Key:
MET = molecular target: T1, MET (Homo sapiens, UniProt P08581); test: MET transphosphorylation assay; type: biochemical; details: GST fusion protein containing the Met kinase domain, poly(glu-tyr) substrate
T1 construct: Purified GST fusion protein containing the Met kinase domain, SUGEN, Inc
Experimental: MET TRANSPHOSPHORYLATION ASSAY
This assay is used to measure phosphotyrosine levels on a poly(glutamic acid:tyrosine, 4:1) substrate as a means for identifying agonists/antagonists of met transphosphorylation of the substrate.
1. Corning 96-well ELISA plates, Corning Catalog #25805-96.
2. Poly(glu-tyr), 4:1, Sigma, Cat. No; P 0275.
5. Blocking Buffer: Dissolve 25 g Bovine Serum Albumin, Sigma Cat. No A-7888, in 500 ml PBS, filter through a […] filter.
6. Purified GST fusion protein containing the Met kinase domain, SUGEN, Inc.
8. 10% aqueous (MilliQue H2O) DMSO.
9. 10 mM aqueous (dH2O) Adenosine-5′-triphosphate, Sigma Cat. No. A-5394.
10. 2×Kinase Dilution Buffer: for 100 ml, mix 10 mL 1M HEPES at pH 7.5 with 0.4 mL 5% BSA/PBS, 0.2 mL 0.1 M sodium orthovanadate and 1 mL 5M sodium chloride in 88.4 mL dH2O.
11. 4×ATP Reaction Mixture: for 10 mL, mix 0.4 mL 1 M manganese chloride and 0.02 mL 0.1 M ATP in 9.56 mL dH2O.
12. 4×Negative Controls Mixture: for 10 mL, mix 0.4 mL 1 M manganese chloride in 9.6 mL dH2O.
13. NUNC 96-well V bottom polypropylene plates, Applied Scientific Catalog #S-72092
15. Antibody Dilution Buffer: for 100 mL, mix 10 mL 5% BSA/PBS, 0.5 mL 5% Carnation® Instant Milk in PBS and 0.1 mL 0.1 M sodium orthovanadate in 88.4 mL TBST.
16. Rabbit polyclonal antophosphotyrosine antibody, SUGEN, Inc.
17. Goat anti-rabbit horseradish peroxidase conjugated antibody, Biosource, Inc.
18. ABTS Solution: for 1 L, mix 19.21 g citric acid, 35.49 g Na2HPO4 and 500 mg ABTS with sufficient dH2O to make 1 L.
19. ABTS/H2O2: mix 15 mL ABST solution with 2μL H2O2 five minutes before use.
1. Coat ELISA plates with 2 μg Poly(Glu-Tyr) in 100 μL PBS, hold overnight at 4° C.
2. Block plate with 150 μL of 5% BSA/PBS for 60 min.
3. Wash plate twice with PBS then once with 50 mM Hepes buffer pH 7.4.
4. Add 50 μl of the diluted kinase to all wells. (Purified kinase is diluted with Kinase Dilution Buffer. Final concentration should be 10 ng/well.)
5. Add 25 μL of the test compound (in 4% DMSO) or DMSO alone (4% in dH2O) for controls to plate.
6. Incubate the kinase/compound mixture for 15 minutes.
7. Add 25 μL of 40 mM MnCl2 to the negative control wells.
8. Add 25 μL ATP/MnCl2 mixture to the all other wells (except the negative controls). Incubate for 5 min.
9. Add 25 μL 500 mM EDTA to stop reaction.
10. Wash plate 3× with TBST.
11. Add 100 μL rabbit polyclonal anti-Ptyr diluted 1:10,000 in Antibody Dilution Buffer to each well. Incubate, with shaking, at room temperature for one hour.
12. Wash plate 3× with TBST.
13. Dilute Biosource HRP conjugated anti-rabbit antibody 1:6,000 in Antibody Dilution buffer. Add 100 μL per well and incubate at room temperature, with shaking, for one hour.
14. Wash plate 1× with PBS.
15. Add 100 μl of ABTS/H2O2 solution to each well.
16. If necessary, stop the development reaction with the addition of 100 μl of 0.2M HCl per well.
17. Read plate on Dynatech MR7000 ELISA reader with the test filter at 410 nM and the reference filter at 630 nM.

SRC = molecular target: T2, SRC (Homo sapiens, UniProt P12931); test: Src transphosphorylation assay; type: biochemical; details: recombinant human Src, poly(Glu-Tyr) substrate
T2 construct: purchased UBI 14-117
T2 sequence (P12931 whole entry): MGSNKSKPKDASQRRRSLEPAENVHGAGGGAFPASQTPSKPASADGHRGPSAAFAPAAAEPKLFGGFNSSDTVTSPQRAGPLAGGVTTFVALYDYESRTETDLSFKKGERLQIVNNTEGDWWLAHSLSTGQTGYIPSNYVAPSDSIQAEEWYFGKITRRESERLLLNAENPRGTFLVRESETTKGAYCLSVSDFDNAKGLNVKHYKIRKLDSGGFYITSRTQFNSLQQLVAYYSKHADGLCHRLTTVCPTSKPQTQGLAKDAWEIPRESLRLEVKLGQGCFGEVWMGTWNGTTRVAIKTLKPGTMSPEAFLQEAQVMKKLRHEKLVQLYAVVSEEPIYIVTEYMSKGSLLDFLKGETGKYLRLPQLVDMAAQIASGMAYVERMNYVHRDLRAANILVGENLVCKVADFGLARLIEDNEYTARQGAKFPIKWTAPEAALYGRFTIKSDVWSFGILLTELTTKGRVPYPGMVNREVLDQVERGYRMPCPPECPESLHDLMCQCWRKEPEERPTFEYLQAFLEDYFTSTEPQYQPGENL
Experimental: Src Transphosphorylation Assay
This assay is used to screen for inhibitors of the tyrosine kinase Src.
1. Coating buffer: PBS containing sodium azide (0.2 mg/ml).
3. Wash buffer: PBS containing 0.05% v/v Tween 20 (PBS-TWEEN)
5. ATP (40 [M)+MgCl2 (80 mM) in distilled water.
6. MgCl2 (80 mM) in distilled water (for no ATP blanks).
7. Test compounds, 10 mM in DMSO.
8. Assay Buffer: 100 mM HEPES, pH 7.4, containing 2 mM DTT, 0.2 mM sodium orthovanadate and 0.2 mgs/ml BSA.
9. Partially purified recombinant human Src (UBI (14-117)
10. Anti-phosphotyrosine (SUGEN rabbit polyclonal anti-PY).
11. HRP-linked goat anti-rabbit Ig (Biosource International #6430)
12. HRP substrate ABTS or Pierce Peroxidase substrate.
13. Corning ELISA plates.
1. Coat plates with 100 μl of 20 μg/ml poly(Glu-Tyr) (Sigma Cat. No.P0275) containing 0.01% sodium azide. Hold overnight at 4° C.
2. Block with 1% BSA at 100 μl/well for one hour at room temperature.
3. Plate test compounds (10 mM in DMSO) at 2 ul/well on a Costar plate ready for dilution with dH2O and plating to reaction plates.
4. Dilute Src kinase 1:10,000 in Reaction Buffer, for 5 plates prepare 25 ml as follows: 2.5 mls 1M HEPES pH7.4 (stored sterile at 4° C.), 21.85 ml distilled water, 0.1 ml 5% BSA, 0.5 ml 10 mM sodium orthovanadate (stored sterile at 4° C.), 50 μl 1.0M DTT (stored frozen at […]), and 2.5 μl Src Kinase (stored frozen at −80° C.).
5. Add 48 μl of distilled water to the 2 ∥l of each compound in the dilution plate then add 25 μl/well of this to the reaction plate.
6. Add 50 μl of […] to each reaction buffer well and then 25 μl ATP-MgCl2/well (MgCl2 only to no ATP blanks). Incubate at room temperature for 15 minutes on plate shaker. Stop reaction by adding 25 μl of 0.5M EDTA to each well.
7. Wash 4× with PBS-TWEEN.
8. […] Incubate with continuous shaking at room temperature for one hour.
9. Wash plates 4× with PBS-TWEEN.
10. Add 100 μl HPP-linked Ig (1:5,000) in PBS-TWEEN containing 0.5% BSA, 0.025% Non-fat milk powder, 100 μM sodium orthovanadate. Incubate with shaking at room temperature for one hour.
11. Wash plates 4× with PBS-TWEEN and then once with PBS.
12. Develop plate using ABTS or other peroxidase substrate.

T1 sequence (P08581 1078-1345 limits assumed): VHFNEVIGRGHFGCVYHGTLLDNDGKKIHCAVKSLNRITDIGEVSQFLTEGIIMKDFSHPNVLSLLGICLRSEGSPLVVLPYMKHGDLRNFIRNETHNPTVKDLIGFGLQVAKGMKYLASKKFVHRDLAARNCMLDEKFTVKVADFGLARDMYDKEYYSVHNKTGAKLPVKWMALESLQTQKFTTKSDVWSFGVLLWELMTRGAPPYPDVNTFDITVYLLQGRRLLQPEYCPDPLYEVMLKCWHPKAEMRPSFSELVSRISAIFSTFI

Row | SMILES | IC50 (MET) [µM] | IC50 (SRC) [µM]
1 | COc1ccc(-c2cccc3c2/C(=C/c2[nH]c(C)c(C(=O)NCCN4CCCC4)c2C)C(=O)N3)cc1 [Example 38, 5-[4-(4-Methoxy-phenyl)-2-oxo-1,2-dihydro-indol-3-ylidenemethyl]-2,4-dimethyl-1H-pyrrole-3-carboxylic Acid (2-Pyrrolidin-1-yl-ethyl)-amide] | 0.11 | 1.25
2 | COc1ccc(-c2cccc3c2/C(=C/c2[nH]c(C)c(C(=O)N4C[C@@H](C)N[C@@H](C)C4)c2C)C(=O)N3)cc1 [Example 40, 3-[4-((cis)-3,5-Dimethyl-piperazine-1-carbonyl)-3,5-dimethyl-1H-pyrrol-2-ylmethylene]-4-(4-methoxy-phenyl)-1,3-dihydro-indol-2-one] | 0.27 | 6.57
3 | COc1ccc(-c2cccc3c2/C(=C/c2[nH]c(C)cc2C(=O)NCCN2CCCC2)C(=O)N3)cc1 [Example 41, 2-[4-(4-Methoxy-phenyl)-2-oxo-1,2-dihydro-indol-3-ylidenemethyl]-5-methyl-1H-pyrrole-3-carboxylic Acid (2-Pyrrolidin-1-yl-ethyl)-amide] | 0.32 | 5.42
4 | CCN(CC)CCNC(=O)c1c(C)[nH]c(/C=C2\C(=O)Nc3cccc(-c4cccc(OC)c4)c32)c1C [Example 46, 5-[4-(3-Methoxy-phenyl)-2-oxo-1,2-dihydro-indol-3-ylidenemethyl]-2,4-dimethyl-1H-pyrrole-3-carboxylic Acid (2-Diethylamino-ethyl)-amide] | 0.12 | 0.66
5 | COc1cccc(-c2cccc3c2/C(=C/c2[nH]c(C)c(C(=O)NCCn4ccnn4)c2C)C(=O)N3)c1 [Example 48, 5-[4-(3-Methoxy-phenyl)-2-oxo-1,2-dihydro-indol-3-ylidenemethyl]-2,4-dimethyl-1H-pyrrole-3-carboxylic Acid (2-[1,2,3]Triazol-1-yl-ethyl)-amide] | 1.06 | 3.8
6 | COc1cccc(-c2cccc3c2/C(=C/c2[nH]c(C)c(C(=O)NCCN(C(C)C)C(C)C)c2C)C(=O)N3)c1 [Example 52, 5-[4-(3-Methoxy-phenyl)-2-oxo-1,2-dihydro-indol-3-ylidenemethyl]-2,4-dimethyl-1H-pyrrole-3-carboxylic Acid (2-Diisopropylamino-ethyl)-amide] | 0.092 | 0.54
7 | Cc1[nH]c(/C=C2\C(=O)Nc3cccc(-c4ccc(Br)cc4)c32)c(C)c1C(=O)N1CCN(C)CC1 [Example 53] | 0.29 | 13.5
8 | Cc1[nH]c(/C=C2\C(=O)Nc3cccc(-c4ccc(Br)cc4)c32)c(C)c1C(=O)N1C[C@@H](C)N[C@@H](C)C1 [Example 57, 4-(4-Bromo-phenyl)-3-[4-[(cis)-3,5-dimethyl-piperazine-1-carbonyl)-3,5-dimethyl-1H-pyrrol-2-ylmethylene]-1,3-dihydro-indol-2-one] | 0.42 | 4.74
9 | Cc1cc(C(=O)NCCN2CCCC2)c(/C=C2\C(=O)Nc3cccc(-c4ccc(Br)cc4)c32)[nH]1 [Example 58, 2-[4-(4-Bromo-phenyl)-2-oxo-1,2-dihydro-indol-3-ylidenemethyl]-5-methyl-1H-pyrrole-3-carboxylic Acid (2-Pyrrolidin-1-yl-ethyl)-amide] | 0.073 | 4.81
10 | Cc1[nH]c(/C=C2\C(=O)Nc3cccc(-c4ccc(Br)cc4)c32)c(C)c1C(=O)NCCN(C(C)C)C(C)C [Example 60, 5-[4-(4-Bromo-phenyl)-2-oxo-1,2-dihydro-indol-3-ylidenemethyl]-2,4-dimethyl-1H-pyrrole-3-carboxylic Acid (2-Diisopropylamino-ethyl)-amide] | 0.25 | 2.01
11 | CCN(CC)CCNC(=O)c1c[nH]c(/C=C2\C(=O)Nc3cccc(-c4ccc(Br)cc4)c32)c1C [Example 61, 5-[4-(4-Bromo-phenyl)-2-oxo-1,2-dihydro-indol-3-ylidenemethyl]-4-methyl-1H-pyrrole-3-carboxylic Acid (2-Diethylamino-ethyl)-amide] | 0.11 | 1.72
12 | CCN(CC)CCNC(=O)c1c(C)[nH]c(/C=C2\C(=O)Nc3cccc(-c4cccc(Br)c4)c32)c1C [Example 63, 5-[4-(3-Bromo-phenyl)-2-oxo-1,2-dihydro-indol-3-ylidenemethyl]-2,4-dimethyl-1H-pyrrole-3-carboxylic Acid (2-Diethylamino-ethyl)-amide] | 0.043 | 1.14
13 | Cc1[nH]c(/C=C2\C(=O)Nc3cccc(-c4ccccc4F)c32)c(C)c1C(=O)N1CCN(C)CC1 [Example 93, 3-[3,5-Dimethyl-4-(4-methyl-piperazine-1-carbonyl)-1H-pyrrol-2-ylmethylene]-4-(2-fluoro-phenyl)-1,3-dihydro-indol-2-one] | 0.08 | > 20
14 | Cc1cc(C(=O)NCCn2ccnn2)c(/C=C2\C(=O)Nc3cccc(-c4ccccc4F)c32)[nH]1 [Example 99, 2-[4-(2-Fluoro-phenyl)-2-oxo-1,2-dihydro-indol-3-ylidenemethyl]-5-methyl-1H-pyrrole-3-carboxylic Acid (2-[1,2,3]Triazol-1-yl-ethyl)-amide] | 0.18 | > 20
15 | Cc1[nH]c(/C=C2\C(=O)Nc3cccc(-c4cccc(C(F)(F)F)c4)c32)c(C)c1C(=O)N1CCN(C)CC1 [Example 104, 3-[3,5-Dimethyl-4-(4-methyl-piperazine-1-carbonyl)-H-pyrrol-2-ylmethylene]-4-(3-trifluoromethyl-phenyl)-1,3-dihydro-indol-2-one] | 0.58 | 7.09
